Assay results from US20150290105A1, “COMPOSITION COMPRISING SYRINGARESINOL FOR IMPROVING THE SKIN” (AMOREPACIFIC CORPORATION, priority 2011, published 2015).

Key:
[1] = test system: Melanocytes (Mel-Ab cells); experiment: Test of cytotoxicity (crystal violet cell viability) in mouse melanocytes; format: cell-based; settings: 24 hours
Protocol: Cytotoxicity was tested for syringaresinol in mouse melanocytes as follows.
Melanocytes (Mel-Ab cells) derived from C57BL/6 (treated with Dooley et al.'s method) were cultured under the condition of 37° C. and 5% CO2 in Dulbecco's modified Eagle's medium (DMEM) containing 10% fetal bovine serum, 100 nM 12-O-tetradecanoylphorbol-13-acetate and 1 nM cholera toxin. The cultured Mel-Ab cells were detached with 0.25% trypsin-EDTA, cultured in a 24-well plate to a concentration of 10^5 cells/well and then treated with the syringaresinol prepared in Example. After culturing for 24 hours, the cells were washed with phosphate buffered saline (PBS, pH 7.2) and then stained using 0.1% crystal violet (Sigma) and 10% ethanol (EtOH) for 5 minutes at room temperature. After completely removing free crystal violet, the cells were washed 3 times with PBS (pH 7.2). The stained cells were treated with 95% ethanol (EtOH) for 1 hour at room temperature to extract crystal violet. The absorbance of the extract was measured at 540 nm using the Lambda 25 spectrophotometer (PerkinElmer) and cell viability (%) was calculated according to Equation 1.
Cell viability (%)=(A/B)×100 [Equation 1]
A: absorbance in the presence of syringaresinol
B: absorbance in the absence of syringaresinol

[2] = test system: mushroom-derived tyrosinase; experiment: Tyrosinase activity inhibiting effect (dopachrome formation); format: biochemical; settings: 10 ppm, 37° C. 10 minutes
Protocol: The reaction solution was prepared by adding 500 μL of 0.1 M PBS, 15 μg of L-tyrosine and 50 μL of syringaresinol and then adding distilled water to make the final volume 1500 μL. A solution prepared through the same procedure but with Kojic acid instead of syringaresinol was used as a positive control. The concentration of all the samples used in experiment was set to 10 ppm. After adding 10 units of mushroom-derived tyrosinase to the reaction solution, followed by reaction at 37° C. for 10 minutes, the reaction was stopped by quickly transferring onto ice for 5 minutes. The synthesis rate of dopachrome produced was determined by measuring absorbance at 475 nm and tyrosinase activity inhibiting rate (%) was calculated therefrom.

[3] = Keratin reducing effect on human skin (Charm View); format: in vivo
Protocol: In order to investigate whether syringaresinol can reduce the keratin of skin, syringaresinol of the same concentration as in Test Example 6 was applied on the inside of the lower arms of 50 male and female adults in their 20s and 30s and without skin diseases. 24 hours later, the reduced amount of keratin was measuring using Charm View (Moritex, Japan). The initial amount of skin keratin prior to application of the test substance measured with Charm View under a constant-temperature (24° C.), constant-humidity (40%) condition was used as a reference value, and the change in the amount of keratin was measured 24 hours later.

filaggrin = experiment: Filaggrin expression promoting effect in human keratinocytes; format: cell-based; settings: HaCaT cells, FIG. 5
Protocol: Human keratinocyte HaCaT cells were cultured in substantially the same manner as in Test Example 10.
cDNA was synthesized in substantially the same manner as in Test Example 10 and the expression pattern of the filaggrin, involucrin and GAPDH genes was monitored substantially the same manner as in Test Example 10 using the synthesized cDNA and predesigned primers and probes (Applied Biosystems; […]; GAPDH, Hs99999905_ml).

TGF-β1 = TGF-β1 production in fibroblasts (ELISA); format: cell-based, human; settings: HDF cells, 24 hours
Protocol: Human fibroblast HDF cells were cultured in substantially the same manner as in Test Example 10.
The cultured cells were treated with syringaresinol dissolved in DMSO to a concentration of 20, 50 or 100 μM for 24 hours. After 24 hours, the cell culture was recovered.
The quantity of TGF-β1 produced in the recovered cell culture was measured using the Quantikine™ high-sensitivity ELISA kit (R&D Systems, USA) according to the manufacturer's instructions. All the samples required for the measurement of the quantity of TGF-β1 were provided by the kit. First, the recovered cell culture was transferred to a 96-well microplate uniformly coated with TGF-β1 antibody and it was allowed for antigen-antibody reaction to proceed at 37° C. for 1 hour. After removing the cell culture, the wells were washed 3 times with PBS. Then, horseradish peroxidase-conjugated secondary antibody was added to each well and it was allowed for antigen-antibody reaction to proceed for 1 hour. Subsequently, after adding tetramethylbenzidine as a chromogenic substrate to each well, followed by reaction at room temperature for 15 minutes, 1 N sulfuric acid was added to stop the reaction. Then, absorbance was measured at 450 nm using a spectrophotometer. After drawing a standard curve using a standard solution, the TGF-β1 production amount in the cell culture with the test substance added was calculated from the measured absorbance.

[4] = Skin wrinkle formation after UVB in hairless mouse; format: in vivo, hairless mice (SKH: HR-1); settings: UVB 180 mJ/cm^2
Protocol: 30-week-old female hairless mice (SKH: HR-1) weighing 25-39 g were purchased from Charles River Laboratories (Wilmington, Mass., USA). The mice were accustomed to the laboratory environment for a week and then grouped into normal groups and test substance-treated groups, with 5 mice per each group. The mice were allowed free access to water and feed under the condition of 12-hour light/dark cycles, 23.2° C. and 55.10% humidity.
For the test substance-treated groups, a patch of 1% syringaresinol dissolved in a solvent (1,3-butylene glycol:ethanol=7:3) was applied 2 times for 2 days or 200 mg/kg syringaresinol was orally administered. The control groups were treated in the same way using the solvent of the same amount instead of syringaresinol. The syringaresinol-applied group, syringaresinol oral administration group and control groups were exposed to UVB of 180 mJ/cm^2. Before and after the UV radiation, skin wrinkles on the exposed part were taken with replica and measured using the Visiometer system (C+K).
Change (%)=[(Tdi−Tdo)/(Tdo)]×100 [Equation 4]
Tdi: value measured after UV radiation
Tdo: value measured before UV radiation

With `COc1cc(C2OCC3C(c4cc(OC)c(O)c(OC)c4)OCC23)cc(OC)c1O` (stereo not shown) [Syringaresinol, syringaresinol] the “Cell viability (%)” value [1] was 98.6%, the “Tyrosinase activity inhibiting rate (%)” value [2] was 90.2% and the “Amount of skin keratin, 24 hours later” value ([3]; 1% applied on lower arm, 24 hours) was 11.9. For the same compound, the “Amount of skin keratin, Before application” value ([3]; reference value, 24° C., 40% humidity) was 20.3, the Expression of filaggrin (filaggrin) was “increases the expression of filaggrin” and the TGF-β1 production amount (TGF-β1; 20 μM) was 43.3 ± 1.0. For the same compound, the TGF-β1 production amount (TGF-β1; 50 μM) was 87.2 ± 4.2, the TGF-β1 production amount (TGF-β1; 100 μM) was 92.1 ± 5.6 and the “Increase of skin wrinkles (Change %)” value ([4]; application of 1% patch, control 230±35%) was 121±35%. For the same compound, the “Increase of skin wrinkles (Change %)” value ([4]; oral administration 200 mg/kg, control 224±45%) was 123±25%.
